Experimental data as given in patent publication US6458767B1, “Use of peptides inhibitory for thrombospondin dependent TGF-β activation in the treatment of kidney disease” (The UAB Research Foundation, priority 1994, dated 2002).
Ends that are not written are not given here.

Columns and labels:
TGF-β = test: Glomerular secretion of active TGF-β (NRK-bioassay of supernatants of isolated glomeruli) in anti-Thy1 rats; format: in vivo, rat
Description: (§1) Experimental design. Experimental mesangial proliferative glomerulonephritis was induced using the monoclonal mouse anti-Thy1 antibody OX-7. Peptides were continuously infused intravenously (i.v.) via jugular vein using osmotic minipumps starting sixteen hours after disease induction. The effects of the hexapeptide AAWSHW (SEQ ID NO:22) (that interferes with the TSP1-mature TGF-β interaction) or the LSKL-peptide (SEQ ID NO:21) (that blocks the TSP1-LAP interaction) were compared to a control peptide (SLLK) in the anti-Thy1 model. Tissues from different time points (days three, five, eight) of this experiment were analyzed in regard to mesangiolysis, macrophage-influx, MC-proliferation, MC-activation, microaneurysm and matrix formation, GEN proliferation, TSP1, TGF-β1 and 2, as well as TGF-βRI and RII. Functional parameters such as blood pressure, proteinuria, and creatinine clearance were also determined. On day eight, glomerular secretion of active TGF-β was determined in individual animals by incubating isolated glomeruli for twenty-four hours in DMEM and measuring TGF-β activity in glomerular supernatants using the NRK-bioassay.
(§2) Animal model Experimental mesangial proliferative glomerulonephritis (anti-Thy1 model) was induced in Sprague Dawley rats (180-200 g; Charles River, Sulzfeld, Germany) by a single injection of 1 mg/kg of the mouse monoclonal anti-Thy1 antibody OX-7 (European Collection of Animal Cell Culture, Salisbury, England). In this animal model, complete anti-Thy1 antibody binding occurs within an hour (Johnson et al. (1991) Am. J. Pathol. 138 (2), 313-21). To avoid potential interference of the LAP-peptides with anti-Thy1 antibody binding and subsequent mesangiolysis, the peptide treatment was started sixteen hours after disease induction, when binding of the anti-Thy1 antibody to the mesangium and subsequent mesangiolysis had already occurred. The peptides used in this study were synthesized, purified, and analyzed as described elsewhere (Crawford et al. (1998) Cell 93, 1159-1170).
Renal biopsies as described previously (Hugo et al. (1997) J. Clin. Invest. 100, 786-794) were performed on days three and five, and the experiment was finished on day eight. To determine DNA incorporation into proliferating cells, each animal was injected intravenously with BrdU (50 mg/kg bw) ninety minutes before the second survival biopsy was taken on day five (peak of MC proliferation). Renal biopsies were fixed in methyl Carnoy's, 10% formalin and/or OCT and snap frozen. A twenty-four hour urine collection for measurement of protein and creatinine was done from day seven to eight, when maximal proteinuria occurs in this model (unpublished observation). Blood pressure measurements were done twice before and twice after disease induction. In renal biopsies, the frequency of glomerular microaneurysms, the number of infiltrating macrophages, the number of proliferating MC, the expression of the contractile protein α-sm actin as a marker of MC-activation, and the expression of TGF-β1, TGF-β2, TGF-βRI, TGF-βRII, TSP1, as well as of extracellular matrix proteins such as collagen I, collagen IV and fibronectin were determined. For TGF-β activity measurements in individual animals on day eight, glomeruli were isolated by differential sieving (Johnson et al. (1991) Am. J. Pathol. 138 (2), 313-21) and counted using five aliquots. Glomerular isolates were discarded if purity was less than 95%. 8000 glomeruli/ml were incubated in DMEM at 37° C. […]

[1] = tested on: rats with anti-Thy1 disease; test: Glomerular extracellular matrix formation (Masson's Trichrome, collagen I, collagen IV, fibronectin stains) in the anti-Thy1 model; format: in vivo, rat
Description: as §1, §2
(§3) Renal biopsies as described previously (Hugo et al. (1997) J. Clin. Invest. 100, 786-794) were performed on days three and five, and the experiment was finished on day eight. To determine DNA incorporation into proliferating cells, each animal was injected intravenously with BrdU (50 mg/kg bw) ninety minutes before the second survival biopsy was taken on day five (peak of MC proliferation). Renal biopsies were fixed in methyl Carnoy's, 10% formalin and/or OCT and snap frozen. A twenty-four hour urine collection for measurement of protein and creatinine was done from day seven to eight, when maximal proteinuria occurs in this model (unpublished observation). Blood pressure measurements were done twice before and twice after disease induction. In renal biopsies, the frequency of glomerular microaneurysms, the number of infiltrating macrophages, the number of proliferating MC, the expression of the contractile protein α-sm actin as a marker of MC-activation, and the expression of TGF-β1, TGF-β2, TGF-βRI, TGF-βRII, TSP1, as well as of extracellular matrix proteins such as collagen I, collagen IV and fibronectin were determined. For TGF-β activity measurements in individual animals on day eight, glomeruli were isolated by differential sieving (Johnson et al. (1991) Am. J. Pathol. 138 (2), 313-21) and counted using five aliquots. Glomerular isolates were discarded if purity was less than 95%. 8000 glomeruli/ml were incubated in DMEM at 37° C. After a twenty-four hour incubation period, glomerular supernatants were stored by −70° C. until TGF-β activity measurements were done.
(§4) Peptide infusion. All peptides (at a concentration of 3.5 mg/ml) were continuously infused for seven days via a catheter in the right jugular vein using osmotic minipumps (Alzet Corp./Charles River, Sulzfeld, Germany). […]

[2] = tested on: rats with anti-Thy1 disease; test: Glomerular immunostaining score for TGF-β1, TGF-β2, TGF-βRI, TGF-βRII and TSP1 in the anti-Thy1 model; format: in vivo, rat
Description: as §1, §2, §3, §4

[3] = tested on: rats with anti-Thy1 disease; test: Glomerular MC-proliferation, MC-activation and macrophage influx in the anti-Thy1 model; format: in vivo, rat
Description: as §1, §2, §3, §4

[4] = tested on: rats with anti-Thy1 disease; test: Mesangiolysis, microaneurysm formation and GEN-proliferation in the anti-Thy1 model; format: in vivo, rat
Description: as §1, §2, §3, §4

[5] = tested on: rats with anti-Thy1 disease; test: Functional parameters (proteinuria, creatinine clearance, blood urea nitrogen, systolic blood pressure) in the anti-Thy1 model; format: in vivo, rat
Description: as §1, §2, §3, §4

[6] = tested on: activation of TGF-β by TSP1; details: background, literature; cited from earlier work

Substance: AAWSHW
- Active TGF-β (colonies > 62 um) (TGF-β; day 8 glomeruli, 24 h supernatant, NRK-bioassay, continuous i.v. peptide infusion): 220 ± 70 colonies > 62 um
- glomerular secretion of active TGF-β compared to control peptide (SLLK) treated rats (TGF-β; day eight glomeruli, p<0.01): markedly reduced
- Matrix Collagen 1 (score 0-4) ([1]; day 3): 0.1 ± 0.1 score 0-4
- Matrix Collagen IV (score 0-4) ([1]; day 3): 1.0 ± 0.5 score 0-4
- Matrix Fibronectin (score 0-4) ([1]; day 3): 1.3 ± 0.3 score 0-4
- Matrix Trichrome (score 0-3) ([1]; day 3): 0.5 ± 0.3 score 0-3
- Matrix Collagen 1 (score 0-4) ([1]; day 5): 0.8 ± 0.6 score 0-4
- Matrix Collagen IV (score 0-4) ([1]; day 5): 2.1 ± 0.6 score 0-4
- Matrix Fibronectin (score 0-4) ([1]; day 5): 1.9 ± 1.2 score 0-4
- Matrix Trichrome (score 0-3) ([1]; day 5): 0.9 ± 0.3 score 0-3
- Matrix Collagen 1 (score 0-4) ([1]; day 8): 1.0 ± 0.6 score 0-4
- Matrix Collagen IV (score 0-4) ([1]; day 8): 1.3 ± 0.5 score 0-4
- Matrix Fibronectin (score 0-4) ([1]; day 8): 1.2 ± 0.8 score 0-4
- Matrix Trichrome (score 0-3) ([1]; day 8): 1.4 ± 0.4 score 0-3
- extracellular matrix formation as determined by Trichrome staining ([1]; day eight, in words): markedly suppressed
- glomerular accumulation of collagen I, collagen IV and fibronectin by immunohistochemistry ([1]; time course of anti-Thy1 disease, in words): reduced glomerular accumulation of all three extracellular matrix proteins
- TGF-β1 (score 0-4) ([2]; day 3): 0.4 ± 0.2 score 0-4
- TGF-β2 (score 0-4) ([2]; day 3): 0.4 ± 0.3 score 0-4
- TGF-βRI (score 0-4) ([2]; day 3): 0.5 ± 0.3 score 0-4
- TGF-βRII (score 0-4) ([2]; day 3): 0.5 ± 0.5 score 0-4
- TSP I (score 0-4) ([2]; day 3): 0.6 ± 0.2 score 0-4
- TGF-β1 (score 0-4) ([2]; day 5): 1.9 ± 0.9 score 0-4
- TGF-β2 (score 0-4) ([2]; day 5): 1.1 ± 0.7 score 0-4
- TGF-βRI (score 0-4) ([2]; day 5): 1.9 ± 0.4 score 0-4
- TGF-βRII (score 0-4) ([2]; day 5): 1.4 ± 0.6 score 0-4
- TSP I (score 0-4) ([2]; day 5): 1.5 ± 0.9 score 0-4
- TGF-β1 (score 0-4) ([2]; day 8): 1.6 ± 1.1 score 0-4
- TGF-β2 (score 0-4) ([2]; day 8): 0.5 ± 0.4 score 0-4
- TGF-βRI (score 0-4) ([2]; day 8): 1.6 ± 0.6 score 0-4
- TGF-βRII (score 0-4) ([2]; day 8): 1.2 ± 0.5 score 0-4
- TSP I (score 0-4) ([2]; day 8): 0.8 ± 0.7 score 0-4
- MC-activation α-sm actin (score 0-4) ([3]; day 3): 1.1 ± 0.5 score 0-4
- MC-proliferation (OX-7 + /PCNA + cells/glomerulus) ([3]; day 3): 3.1 ± 0.8 cells/glomerulus
- Macrophages (ED-1 + cells/glomerulus) ([3]; day 3): 3.0 ± 1.8 cells/glomerulus
- MC-activation α-sm actin (score 0-4) ([3]; day 5): 2.8 ± 0.5 score 0-4
- MC-proliferation (OX-7 + /BrdU + cells/glomerulus) ([3]; day 5): 4.6 ± 1.9 cells/glomerulus
- MC-proliferation (OX-7 + /PCNA + cells/glomerulus) ([3]; day 5): 8.5 ± 1.6 cells/glomerulus
- Macrophages (ED-1 + cells/glomerulus) ([3]; day 5): 0.9 ± 0.5 cells/glomerulus
- MC-activation α-sm actin (score 0-4) ([3]; day 8): 2.5 ± 0.4 score 0-4
- MC-proliferation (OX-7 + /PCNA + cells/glomerulus) ([3]; day 8): 3.9 ± 0.8 cells/glomerulus
- Macrophages (ED-1 + cells/glomerulus) ([3]; day 8): 0.7 ± 0.3 cells/glomerulus
- MC activation (de novo expression of α-sm-actin) ([3]; in words): did not significantly alter
- Glomerular Microaneurysm (in percent) ([4]; day 3): 12.2 ± 11.6%
- Glomerular Microaneurysm (in percent) ([4]; day 5): 15.5 ± 11.8%
- Glomerular Microaneurysm (in percent) ([4]; day 8): 1.6 ± 1.8%
- Glomerular GEN-proliferation (double staining for RECA-1 and PCNA) ([4]; day three): 1.8±0.6
- mesangiolysis scores ([4]; day three, scale 0-IV): 2.5±0.4
- Proteinuria (mg/24 hours) ([5]; day 8 (urine collection day seven to eight)): 51 ± 50 mg/24 hours
- twenty-four hour proteinuria ([5]; days seven to eight): 51±50 mg/twenty-four hours
- Blood urea nitrogen ([5]; rat, in vivo): 23.6 ± 7.1 mg/dL
- block of activation of TGF-β by TSP1 [6]: able to block activation of TGF-β by TSP1
